Assay results published in publication PMC11192711, “Automated radiosynthesis and preclinical evaluation of two new PSMA-617 derivatives radiolabelled via [^18F]AlF^2+ method” (EJNMMI Radiopharmacy and Chemistry, 2024).

Columns and labels:
[1] = test system: Gli36ΔEGFR tumours-bearing nude mice; experiment: PET/CT in vivo biodistribution and tumour uptake in orthotopic Gli36ΔEGFR glioma model; details: n = 3; for Bone (SUV mean) / Brain (SUV mean) / Colon (SUV mean) / Gall bladder (SUV mean) / Heart (SUV mean) / Kidney (SUV mean) / Liver (SUV mean) / Lung (SUV mean) / Muscle (SUV mean) / Salivary gland (SUV mean) / Small instestine (SUV mean): Gli36ΔEGFR female nude mice, i.v., PET/CT; for tumour-to-contralateral healthy brain ratio (tumour SUV max/contralateral SUV mean): Gli36ΔEGFR orthotopic glioma, nude mice
Procedure: Subsequently, we evaluated the uptake of [^18F]F-PSMA-617-NODA ([^18F]1) and [^18F]F-PSMA-617-RESCA ([^18F]2) in an orthotopic glioma model obtained with Gli36ΔEGFR cells in female nude mice. Gli36ΔEGFR tumours-bearing nude mice (n = 3) were injected i.v. with either [^18F]F-PSMA-617-NODA or [^18F]F-PSMA-617-RESCA (~ 3.8 MBq/mouse, ~ 50 pmol for [^18F]1 and ~ 170 pmol [^18F]2). Radiotracer uptake was assessed after 10, 60 and 120 min post injection by whole-body PET/CT acquisitions. Also in nude female mice, a rapid clearance of [^18F]1 in all organs and the same kinetic observed in NSG male mice (Additional file 1: S71A and B) were confirmed. […] It is interesting to note that the uptake of [^18F]1 in kidneys decreased over time in both models (Additional file 1: S71A and B), while the uptake of [^18F]F-PSMA-1007 in NSG model and [^18F]2 in nude female mice model increased (Additional file 1: S71C and D).
Total body biodistribution of [^18F]F-PSMA-1007, [^18F]F-PSMA-617-NODA and [^18F]F-PSMA-617-RESCA was evaluated in vivo using imaging PET/CT. [^18F]F-PSMA-617-NODA uptake was compared to that of the [^18F]F-PSMA-1007 in a PSMA positive prostate tumour xenograft model (LNCaP). [^18F]F-PSMA-617-NODA and [^18F]F-PSMA-617-RESCA uptake were also evaluated using an orthotopic glioma model (Gli36ΔEGFR).
5 × 10^5 Gli36ΔEGFR cells were injected in the right striatum of seven to eight weeks old female nude mice (Envigo RMS s.r.l., Italy) as previously described (Valtorta et al. [2021]). Ten days after mice underwent a T2-weighted Magnetic Resonance Imaging (MRI) using a 7 T small animal magnetic resonance scanner (Bruker, BioSpec 70/30 USR, Paravision 5.1, Germany) to confirm the growth of the tumour. Then, the same mice underwent in vivo biodistribution of [^18F]F-PSMA-617-NODA and [^18F]F-PSMA-617-RESCA, on successive but non-consecutive days, using PET/CT.
Mice were injected into a tail vein with 3.8 ± 0.1 MBq of [^18F]F-PSMA-1007, 4.0 ± 0.2 MBq of [^18F]F-PSMA-617-NODA ([^18F]1) and 3.8 ± 0.1 MBq of [^18F]F-PSMA-617-RESCA ([^18F]2), respectively.
Total body PET/CT acquisitions were performed using PET/CT tomographs dedicated to small animals, X-ß-CUBE (Molecubes, Gent, Belgium) after 10, 60 and 120 min from tracer injection. Each acquisition lasted 30 min and mice were maintained anesthetized (4% isoflurane in induction and 2% in maintenance in air) during acquisition.
Image quantification analysis was performed with PMOD 4.105 software (Zurich, Switzerland). Volumes of interest (VOIs) were drawn on peripheral organs (tumour, thoracic muscle, heart, liver, kidney, salivary glands, lung, small intestine, colon, bone, gall bladder) and on the healthy brain using CT images. For the glioma model, PET/CT images were co-registered to MRI images and two different VOIs were defined: (1) a control VOI covering the healthy left striatum (volume 4 mm^3) was drawn on the axial MR images, adjusted on the other imaging planes and then copied on the PET images of each mouse; (2) a second glioma-covering VOI was drawn in the tumour-affected brain hemisphere and centered on mice lesions.
For quantification, Standardized Uptake Value (SUV) was calculated according to the formula:
SUV = organ concentration activity [MBq/g]/(injected activity [MBq]/animal weight [g]).
The data were expressed as standardized-uptake-values (SUVmean and SUVmax) and as tumour-to-muscle (T/M) and tumour-to-blood (T/B) ratio in PCa model and as tumour-to-contralateral (T/Cl) ratio in glioma model.

[2] = Stability in final solution (analytical HPLC and radio-TLC); type: physicochemical; details: up to four hours after end of radiosynthesis, room temperature, HPLC and radio-TLC
Procedure: Chemical and radiochemical stability in the final solution were tested by analytical HPLC and radio-TLC (Additional file 1: S37–S41); samples of the purified product were analyzed up to four hours after the end of radiosynthesis, at time intervals of two hours and storing the vial at room temperature.
Stability in solution of [^18F]F-PSMA-617-NODA ([^18F]1) and [^18F]F-PSMA-617-RESCA ([^18F]2) were evaluated injecting in RP-HPLC (for experimental conditions, see sections “(((S)-5-((S)-2-((1R,4S)-4-((4-(4,7-bis(carboxymethyl)-1,4,7-triazonan-1-yl)butanamido)methyl)cyclohexane-1-carboxamido)-3-(naphthalen-2-yl)propanamido)-1-carboxypentyl)carbamoyl)-L-glutamic acid [^18F] aluminium fluoride ([^18F] 1)” and “(((S)-5-((S)-2-((1R,4S)-4-((2-(4-((((1R,2R)-2-(bis(carboxymethyl)amino)cyclohexyl)(carboxymethyl)amino)methyl)phenyl)acetamido)methyl)cyclohexane-1-carboxamido)-3-(naphthalen-2-yl)propanamido)-1-carboxypentyl)carbamoyl)-L-glutamic acid [18F] aluminium fluoride ([18F] 2)”) samples (20 µl) of respective radiopharmaceutical solutions at t = 0 (EOS), after 2 h and after 4 h. Moreover, ≈ 7.5 kBq of [^18F]1 or [^18F]2 solution were deposited on TLC sheet. The TLC was imaged using Cyclone® Plus Phosphor Scanner and software OptiQuant™.

## O=C(O)CCC(NC(=O)NC(CCCCNC(=O)C(Cc1ccc2ccccc2c1)NC(=O)C1CCC(CNC(=O)CCCN2CCN(CC(=O)O)CCN(CC(=O)O)CC2)CC1)C(=O)O)C(=O)O.[18F][Al] [[^18F]F-PSMA-617-NODA, (((S)-5-((S)-2-((1R,4S)-4-((4-(4,7-bis(carboxymethyl)-1,4,7-triazonan-1-yl)butanamido)methyl)cyclohexane-1-carboxamido)-3-(naphthalen-2-yl)propanamido)-1-carboxypentyl)carbamoyl)-L-glutamic acid [^18F] aluminium fluoride]
[1]; 10 min p.i.
  Bone (SUV mean): 0.18 ± 0.09
  Brain (SUV mean): 0.06 ± 0.01
  Colon (SUV mean): 0.37 ± 0.08
  Gall bladder (SUV mean): 0.33 ± 0.11
  Heart (SUV mean): 0.26 ± 0.05
  Kidney (SUV mean): 13.11 ± 1.60
  Liver (SUV mean): 0.22 ± 0.01
  Lung (SUV mean): 0.20 ± 0.04
  Muscle (SUV mean): 0.14 ± 0.01
  Salivary gland (SUV mean): 0.54 ± 0.17
  Small instestine (SUV mean): 0.32 ± 0.05
[1]; 60 min p.i.
  Bone (SUV mean): 0.13 ± 0.08
  Brain (SUV mean): 0.03 ± 0.01
  Colon (SUV mean): 0.27 ± 0.13
  Gall bladder (SUV mean): 0.10 ± 0.03
  Heart (SUV mean): 0.10 ± 0.03
  Kidney (SUV mean): 13.32 ± 2.23
  Liver (SUV mean): 0.11 ± 0.01
  Lung (SUV mean): 0.09 ± 0.04
  Muscle (SUV mean): 0.07 ± 0.01
  Salivary gland (SUV mean): 0.24 ± 0.09
  Small instestine (SUV mean): 0.25 ± 0.06
  tumour-to-contralateral healthy brain ratio (tumour SUV max/contralateral SUV mean): 7.75 ± 3.06
[1]; 120 min p.i.
  Bone (SUV mean): 0.12 ± 0.09
  Brain (SUV mean): 0.02 ± 0.01
  Colon (SUV mean): 0.16 ± 0.03
  Gall bladder (SUV mean): 0.04 ± 0.01
  Heart (SUV mean): 0.04 ± 0.002
  Kidney (SUV mean): 9.30 ± 3.60
  Liver (SUV mean): 0.05 ± 0.01
  Lung (SUV mean): 0.04 ± 0.01
  Muscle (SUV mean): 0.03 ± 0.01
  Salivary gland (SUV mean): 0.08 ± 0.04
  Small instestine (SUV mean): 0.15 ± 0.06
  tumour-to-contralateral healthy brain ratio (tumour SUV max/contralateral SUV mean): 10.92 ± 3.56
[2]; listed as [^18F]1
  Chemical and radiochemical stability in the final solution: stable and no loss of radioactivity due to radiolytic degradation and aluminum fluoride release were detected
[2]; listed as [^18F]PSMA-617-NODA
  Chemical and radiochemical stability in the final solution: neither the release of [^18F]AlF^2+ in solution, nor the formation of other degradation by-products was noticed
